Experimental data from patent publication US20230017045A1, “PYRIDINE AND PYRIMIDINE CARBOXYLATE HERBICIDES AND METHODS OF USE THEREOF” (Dow AgroSciences LLC, priority 2017, published 2023).
Where two headings read alike, the source gives them in different places.

System: test plant species
Assay: Post-emergent herbicidal activity test (greenhouse, foliar spray, visual growth reduction)
Format: in vivo
Details: post-emergence, 336 h, 140 g ai/ha
Summary of the method: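 Greenhouse plants at first–second true leaf stage sprayed overhead at 187 L/ha with compound in acetone/water/isopropanol/DMSO/crop oil/X-77 carrier; controls received solvent blank. Injury rated visually after 14 d on a 0–100% scale versus untreated and control plants, converted to growth reduction.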

[1] = ECHCG: barnyardgrass (Echinochloa crus-galli), 14 days after application, read-out: Visual Growth Reduction (%) 14 Days After Application, ECHCG
[2] = IPOHE: ivy-leaf morning glory (Ipomoea hederacea), 14 days after application, read-out: Visual Growth Reduction (%) 14 Days After Application, IPOHE
[3] = KCHSC: kochia (Bassia scoparia), 14 days after application, read-out: Visual Growth Reduction (%) 14 Days After Application, KCHSC
[4] = ORYSA: rice (Oryza sativa), 14 days after application, read-out: Visual Growth Reduction (%) 14 Days After Application, ORYSA
[5] = SETFA: giant foxtail (Setaria faberi), 14 days after application, read-out: Visual Growth Reduction (%) 14 Days After Application, SETFA
[6] = SORVU: grain sorghum (Sorghum vulgare), 14 days after application, read-out: Visual Growth Reduction (%) 14 Days After Application, SORVU
[7] = STEME: common chickweed (Stellaria media), 14 days after application, read-out: Visual Growth Reduction (%) 14 Days After Application, STEME
[8] = TRZAS: wheat, spring (Triticum aestivum), 14 days after application, read-out: Visual Growth Reduction (%) 14 Days After Application, TRZAS
[9] = blackgrass (Alopecurus myosuroides), 14 Days After Application, read-out: Visual Growth Reduction (%) ALOMY
[10] = canada thistle (Cirsium arvense), 14 Days After Application, read-out: Visual Growth Reduction (%) CIRAR
[11] = crabgrass (Digitaria sanguinalis), 14 Days After Application, read-out: Visual Growth Reduction (%) DIGSA
[12] = lambsquarters (Chenopodium album), 14 Days After Application, read-out: Visual Growth Reduction (%) CHEAL
[13] = redroot pigweed (Amaranthus retroflexus), 14 Days After Application, read-out: Visual Growth Reduction (%) AMARE
[14] = wild oat (Avena fatua), 14 Days After Application, read-out: Visual Growth Reduction (%) AVEFA
[15] = yellow nutsedge (Cyperus esculentus), 14 Days After Application, read-out: Visual Growth Reduction (%) CYPES
[16] = ALOMY: blackgrass (Alopecurus myosuroides), 14 days after application, read-out: Visual Growth Reduction (%) 14 Days After Application, ALOMY
[17] = AMARE: redroot pigweed (Amaranthus retroflexus), 14 days after application, read-out: Visual Growth Reduction (%) 14 Days After Application, AMARE
[18] = AVEFA: wild oat (Avena fatua), 14 days after application, read-out: Visual Growth Reduction (%) 14 Days After Application, AVEFA
[19] = CHEAL: lambsquarters (Chenopodium album), 14 days after application, read-out: Visual Growth Reduction (%) 14 Days After Application, CHEAL
[20] = CIRAR: canada thistle (Cirsium arvense), 14 days after application, read-out: Visual Growth Reduction (%) 14 Days After Application, CIRAR
[21] = CYPES: yellow nutsedge (Cyperus esculentus), 14 days after application, read-out: Visual Growth Reduction (%) 14 Days After Application, CYPES
[22] = DIGSA: crabgrass (Digitaria sanguinalis), 14 days after application, read-out: Visual Growth Reduction (%) 14 Days After Application, DIGSA

SMILES	pest or weed control at 140 g/ha [1]	pest or weed control at 140 g/ha [2]	pest or weed control at 140 g/ha [3]	pest or weed control at 140 g/ha [4]	pest or weed control at 140 g/ha [5]	pest or weed control at 140 g/ha [6]	pest or weed control at 140 g/ha [7]	pest or weed control at 140 g/ha [8]	pest or weed control at 140 g/ha [9]	pest or weed control at 140 g/ha [11]	pest or weed control at 140 g/ha [12]	pest or weed control at 140 g/ha [13]	pest or weed control at 140 g/ha [14]	pest or weed control at 140 g/ha [16]	pest or weed control at 140 g/ha [17]	pest or weed control at 140 g/ha [18]	pest or weed control at 140 g/ha [19]	pest or weed control at 140 g/ha [20]	pest or weed control at 140 g/ha [21]	pest or weed control at 140 g/ha [22]	other results
COC(=O)c1nc(-c2ccc(Cl)c(F)c2C)ccc1Cl [F298, Methyl 3-chloro-6-(4-chloro-3-fluoro-2-methylphenyl) picolinate]	0 to 29%	95 to 100%	0 to 29%	0 to 29%	75 to 84%	75 to 84%	0 to 29%	0 to 29%	0 to 29%	0 to 29%	75 to 84%	30 to 44%	0 to 29%								pest or weed control at 140 g/ha [10]: 60 to 74%; pest or weed control at 140 g/ha [15]: 0 to 29%
COC(=O)c1nc(-c2ccc(C(F)(F)F)cc2OC)c(F)cc1Cl [F166, Methyl 3-chloro-5-fluoro-6-(2-methoxy-4-(trifluoromethyl)phenyl)picolinate]	95 to 100%	95 to 100%	95 to 100%	0 to 29%	85 to 94%	85 to 94%	30 to 44%	75 to 84%						0 to 29%	95 to 100%	75 to 84%	85 to 94%	85 to 94%	0 to 29%	75 to 84%	
COC(=O)c1nc(-c2ccc(C(F)(F)F)cc2Cl)cc(C#N)c1Cl [F11, Methyl 3-chloro-6-(2-chloro-4-(trifluoromethyl)phenyl)-4-cyanopicolinate]														0 to 29%	0 to 29%	0 to 29%	0 to 29%	30 to 44%	0 to 29%	0 to 29%	pest or weed control at 140 g/ha (barnyardgrass (Echinochloa crus-galli), 14 Days After Application, read-out: Visual Growth Reduction (%) ECHCG): 0 to 29%; pest or weed control at 140 g/ha (giant foxtail (Setaria faberi), 14 Days After Application, read-out: Visual Growth Reduction (%) SETFA): 0 to 29%; pest or weed control at 140 g/ha (ivy-leaf morning glory (Ipomoea hederacea), 14 Days After Application, read-out: Visual Growth Reduction (%) IPOHE): 30 to 44%; pest or weed control at 140 g/ha (johnsongrass (Sorghum vulgare), 14 Days After Application, read-out: Visual Growth Reduction (%) SORVU): 0 to 29%; pest or weed control at 140 g/ha (kochia (Bassia scoparia), 14 Days After Application, read-out: Visual Growth Reduction (%) KCHSC): 0 to 29%; pest or weed control at 140 g/ha (rice (Oryza sativa), 14 Days After Application, read-out: Visual Growth Reduction (%) ORYSA): 0 to 29%; pest or weed control at 140 g/ha (wheat, spring (Triticum aestivum), 14 Days After Application, read-out: Visual Growth Reduction (%) TRZAS): 0 to 29%
COC(=O)c1nc(-c2ccc(OC(F)F)cc2Cl)ccc1Cl [F157, methyl 3-chloro-6-(2-chloro-4-(difluoromethoxy)phenyl)picolinate]	85 to 94%	95 to 100%	85 to 94%	0 to 29%	85 to 94%	95 to 100%	0 to 29%	60 to 74%						0 to 29%	95 to 100%	45 to 59%	85 to 94%	85 to 94%	0 to 29%	85 to 94%	
CCN(CC)c1c(Cl)ccc(-c2ccc(Cl)c(C(=O)OC)n2)c1F [F171]	0 to 29%	0 to 29%	30 to 44%	0 to 29%	0 to 29%	0 to 29%	0 to 29%	0 to 29%						0 to 29%	0 to 29%	0 to 29%	60 to 74%	0 to 29%	0 to 29%	0 to 29%	
COC(=O)c1nc(-c2cc(C)c(C)cc2Cl)ccc1Cl [F49, Methyl 3-chloro-6-(2-chloro-4,5-dimethylphenyl) picolinate]	0 to 29%	0 to 29%	0 to 29%	0 to 29%	0 to 29%	0 to 29%	0 to 29%	0 to 29%						0 to 29%	30 to 44%	0 to 29%	45 to 59%	0 to 29%	0 to 29%	0 to 29%	
COC(=O)c1nc(-c2cc(F)c(C)cc2Cl)ccc1Cl [F46, Methyl 3-chloro-6-(2-chloro-5-fluoro-4-methylphenyl) picolinate]	0 to 29%		0 to 29%	0 to 29%	0 to 29%	0 to 29%	0 to 29%	0 to 29%						0 to 29%	0 to 29%	0 to 29%	60 to 74%	0 to 29%	0 to 29%	0 to 29%	
COC(=O)c1nc(-c2ccc(C(F)(F)F)c(C)c2)c(F)cc1Cl [F309, Methyl 3-chloro-5-fluoro-6-(3-methyl-4-(trifluoromethyl)phenyl)picolinate]	0 to 29%	0 to 29%	0 to 29%	0 to 29%	0 to 29%	0 to 29%	0 to 29%	0 to 29%	0 to 29%	0 to 29%	45 to 59%	45 to 59%	0 to 29%								pest or weed control at 140 g/ha [10]: 0 to 29%; pest or weed control at 140 g/ha [15]: 0 to 29%
COC(=O)c1nc(-c2cc3c(cc2F)OC(F)(F)O3)c(F)cc1OC [F336, Methyl 5-fluoro-3-methoxy-6-(2,2,6-trifluorobenzo[d][1,3]dioxol-5-yl)picolinate]	0 to 29%	0 to 29%	0 to 29%	0 to 29%	0 to 29%	75 to 84%	0 to 29%	30 to 44%	0 to 29%	60 to 74%	30 to 44%	30 to 44%	0 to 29%								pest or weed control at 140 g/ha [15]: 0 to 29%
